Structures are written as SMILES.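 Results reflect a 48-hour exposure of cells in 96-well plates to compound at five concentrations. GI50 = concentration required for 50% inhibition of growth.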 Activity calls are given as the source filed them. Rule as the data show it: active = GI50 up to about 1.1 µM and inactive = higher.

What all share (assay): growth of human tumour cells (NCI), 48 h
Test [1] relates to MDA-MB-231.
The subject of test [2] is SK-MEL-2.
Test [3] relates to NCI-H460.
In test [4] the test system is HL-60.
Test [5] has as its system PC-3.
Test [6] deals with MCF7.
The test system of test [7] is MDA-N.
In test [8] the test system is HOP-62.
Test [9] relates to NCI/ADR-RES.
The test system of test [10] is NCI-H23.
Test [11] deals with LOX IMVI.
Test [12] concerns 786-0.
Test [13] deals with SNB-75.
Test [14] has as its system HCC 2998.
Test [15] has as its system RPMI-8226.
Test [16] has as its system T47D.
Test [17] deals with HCT-116.
For test [18], the system named is HT-29.
Test [19] concerns NCI-H522.

For the molecule `COc1cc(C2c3cc4c(cc3OC(C)(N3CCCC3)C2C)OCO4)cc(OC)c1OC` (configuration not stated), the GI50 in test [1] was 0.551 µM (active); in test [2] it was 0.405 µM (active); in test [3] it was 0.473 µM (active); in test [4], 0.182 µM (active); in [5] it was 0.34 µM (active); in test [6], 0.457 µM (active). In addition, the GI50 is 0.154 µM (active) in test [7]; 0.301 µM (active) in test [8]; 0.192 µM (active) in test [9]; 0.883 µM (active) in test [10]; 0.452 µM (active) in test [11]; 0.428 µM (active) in test [12]. Besides, the GI50 in test [13] is 0.269 µM (active); in [14], 0.389 µM (active); in test [15], 0.337 µM (active); in [16], 74.5 µM (inactive); in [17], 0.433 µM (active); in test [18], 0.293 µM (active). For the same molecule, in test [19], the GI50 is 0.209 µM (active).

In the case of `COc1ccc2[nH]c3c(C)c4ccnc(NCCCN(C)CCCNc5ccc([N+](=O)[O-])c6[nH]c7ccccc7c(=O)c56)c4c(C)c3c2c1`, the GI50 was 0.621 µM (active) in test [1]; 0.731 µM (active) in test [2]; 0.025 µM (active) in test [3]; 0.53 µM (active) in test [4]; 0.426 µM (active) in [5]; 0.0667 µM (active) in test [6]. Moreover, the GI50 in [7] was 0.372 µM (active); in test [8] it was 0.239 µM (active); in [9] it was 0.592 µM (active); in test [10], 0.575 µM (active); in test [11], 0.14 µM (active); in test [12], 0.0244 µM (active). Besides, the GI50 in test [13] is 0.743 µM (active); in test [14], 0.0178 µM (active); in test [15], 0.0826 µM (active); in test [16], 0.815 µM (active); in test [17], 0.0145 µM (active); in test [18], 0.00813 µM (active). Also, the GI50 in [19] is 0.0235 µM (active).

Consider `COc1cc(OC)c2c(=O)cc(-c3ccccc3F)[nH]c2c1`, for which the GI50 was 76.7 µM (inactive) in test [1]; > 100 µM (inactive) in test [2]; 37.9 µM (inactive) in test [3]; > 100 µM (inactive) in test [4]; 47.2 µM (inactive) in test [5]; 54.5 µM (inactive) in test [6]. Moreover, the GI50 in test [7] is 25.8 µM (inactive); in test [8], 82.6 µM (inactive); in test [9] it was 35.3 µM (inactive); in [10], 32.9 µM (inactive); in test [11], 61.1 µM (inactive); in test [12], 47.9 µM (inactive). Moreover, the GI50 is 33.9 µM (inactive) in [13]; 18.6 µM (inactive) in test [14]; 57.8 µM (inactive) in test [15]; 95.1 µM (inactive) in [16]; 38.3 µM (inactive) in test [17]; 38.2 µM (inactive) in test [18]. Also, in [19], the GI50 was 27 µM (inactive).

As for `N#CC1=C(S)N(C2OC(CO)C(O)C(O)C2O)C(c2ccccc2)=CC1c1ccccc1` (configuration not stated), the GI50 in test [1] was 64.3 µM (inactive); in test [2] it was 6.53 µM (inactive); in test [3], 37.6 µM (inactive); in [4], 40.9 µM (inactive); in test [5], 30.7 µM (inactive); in test [6] it was 43.1 µM (inactive). Moreover, the GI50 in test [7] is 37.2 µM (inactive); in test [8] it was > 100 µM (inactive); in test [9], > 100 µM (inactive); in [10], > 100 µM (inactive); in test [11], 28.1 µM (inactive); in test [12], 37.9 µM (inactive). In addition, the GI50 is 31.9 µM (inactive) in [13]; 18.5 µM (inactive) in test [14]; 46.5 µM (inactive) in [15]; 18.2 µM (inactive) in [16]; 35.6 µM (inactive) in [17]; 48.9 µM (inactive) in test [18]. The GI50 in test [19] is 50.6 µM (inactive).

For `CCOc1cc(/C=N/c2ccc(Oc3ccc(Cl)cc3)c(Cl)c2)ccc1O`, the GI50 in [1] was 19.6 µM (inactive); in [2], 24.5 µM (inactive); in [3], 18.6 µM (inactive); in test [4], 15.3 µM (inactive); in [5] it was 31.8 µM (inactive); in test [6], 31.9 µM (inactive). The GI50 in test [7] was 25 µM (inactive); in [8], 23.1 µM (inactive); in test [9] it was 21.8 µM (inactive); in test [10], 22.7 µM (inactive); in test [11], 19.8 µM (inactive); in test [12], 17 µM (inactive). The GI50 in test [13] is 17.8 µM (inactive); in test [14], 19.3 µM (inactive); in test [15], 29.7 µM (inactive); in [16] it was 36.3 µM (inactive); in [17], 17.9 µM (inactive); in [18] it was 20.8 µM (inactive). The GI50 in [19] is 13.7 µM (inactive).

With `C1CCN2CC34CC(CC5CCCN(C6CCCC3N6)C54)C2C1` (configuration not stated), the GI50 in test [1], in [2], in test [3], in [4], in test [5] and in [6] was > 100 µM (inactive) in each case. Also, the GI50 was > 100 µM (inactive) in [7]; > 100 µM (inactive) in test [8]; > 100 µM (inactive) in test [9]; > 100 µM (inactive) in [10]; > 100 µM (inactive) in [11]; 84.7 µM (inactive) in [12]. The GI50 in test [13], in [14], in [15], in [16], in [17] and in test [18] was > 100 µM (inactive) each time. In addition, the GI50 in test [19] is > 100 µM (inactive).

On to `CCC/C=C/C=C/C(=O)OC1C(C)C2(O)C3C=C(C)C(=O)C3CC(COC(C)=O)=CC2C2C(C)(C)C12OC(=O)C(C)C` (configuration not stated), for which the GI50 in test [1] was 3.92 µM (inactive); in test [2], 18.4 µM (inactive); in test [3], 3.08 µM (inactive); in test [4], 0.532 µM (active); in [5], 11.6 µM (inactive); in test [6] it was 17.2 µM (inactive). In addition, the GI50 in [7] is 0.29 µM (active); in [8] it was 0.0438 µM (active); in test [9], 21.5 µM (inactive); in test [10] it was 12.8 µM (inactive); in test [11], 19.7 µM (inactive); in test [12], 9.62 µM (inactive). Moreover, the GI50 is 10.3 µM (inactive) in test [13]; 0.329 µM (active) in test [14]; 11.8 µM (inactive) in test [15]; 18.5 µM (inactive) in [16]; 13.8 µM (inactive) in test [17]; 12.1 µM (inactive) in [18]. Further, the GI50 in test [19] is 13.4 µM (inactive).

Regarding `CC(C)[C@@H]1NC(=O)[C@@H]2N=C(O[C@H]2C)[C@H](C(C)C)NC(=O)C2N=C1O[C@H]2C`, the GI50 in test [1], in test [2], in test [3], in test [4], in test [5] and in test [6] was > 100 µM (inactive) in each case. Moreover, the GI50 in test [7], in [8], in [9], in test [10], in [11] and in test [12] was > 100 µM (inactive) each time. The GI50 in test [13], in [14], in [15], in test [16], in test [17] and in [18] was > 100 µM (inactive) each time. The GI50 in test [19] is > 100 µM (inactive).

Source of the values: ChEMBL document CHEMBL1201862, “PubChem BioAssay data set” (2004).
